Assays:
human orexin 2 receptor = biological target: T1, human orexin 2 receptor (Homo sapiens, UniProt O43614); test: Assay B: in vitro testing of OX2R potency, OX2R IP1; format: cell-based; details: Table 4a; 0.5 nM Orexin A
T1 construct: CHO-K1 cells stably expressing the full-length human orexin 2 receptor and the aequorin photoprotein; expressed in transfected cells; host or cells: CHO-K1 (CHO-K1/hOx2)
T1 sequence (O43614 1-444): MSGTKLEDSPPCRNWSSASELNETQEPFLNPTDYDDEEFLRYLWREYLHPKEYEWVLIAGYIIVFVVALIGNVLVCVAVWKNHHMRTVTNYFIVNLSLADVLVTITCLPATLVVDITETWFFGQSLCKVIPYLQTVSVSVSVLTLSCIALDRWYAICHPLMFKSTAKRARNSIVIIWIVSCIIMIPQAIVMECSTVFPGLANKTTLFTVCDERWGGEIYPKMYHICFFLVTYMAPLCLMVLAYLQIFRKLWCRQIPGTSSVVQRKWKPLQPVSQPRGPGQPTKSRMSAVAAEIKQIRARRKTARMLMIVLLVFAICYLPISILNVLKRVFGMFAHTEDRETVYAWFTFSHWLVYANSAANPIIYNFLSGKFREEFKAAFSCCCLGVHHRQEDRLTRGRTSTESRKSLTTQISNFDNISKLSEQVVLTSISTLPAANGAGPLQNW
Source text: Activation of the orexin receptors expressed in cell lines results in an increase in intracellular IP3 concentration. IP1, a downstream metabolite of IP3, accumulates in cells following receptor activation and is stable in the presence of LiCl. Using Homogeneous Time-Resolved Fluorescence technology with Lumi4-Tb cryptate (commercially available from Cisbio Bioassay) and a suitable fluorescence plate reader. […] Chem. Genomics 2009, 3, 22-32. This technique is used to characterize pharmacological modification of the orexin receptors.
B. In Vitro Testing of OX2R Potency: OX2R IP1
IP1 measurements are performed in CHO-K1 cells stably expressing the full-length human orexin 2 receptor and the aequorin photoprotein. Cells are cultivated in Ham's nutrient mixture F12 medium with 10% fetal calf serum, in a 37° C., 95% humidity and 5% CO2 incubator. The CHO-K1/hOx2 cell mass is expanded to larger cell numbers. The cells are obtained as frozen cells in cryo-vials and stored until use at −150° C. The viability of the cells after thawing is >90%. In preparation for the assay, 24 hours before the assay, the cells are thawed at 37° C. and immediately diluted with cell culture medium. After centrifugation, the cell pellet is re-suspended in medium and then distributed into the assay plates with a density of 5000 cells/25 μL per well. The plates are incubated for one hour at room temperature to reduce edge effects before they are incubated for 24 hours at 37° C./5% CO2. Compounds are prepared by a 8-point serial dilution in DMSO and a final dilution step into assay buffer (HBSS with 20 mM HEPES, 0.1% BSA and 50 mM LiCl, pH 7.4) to ensure a final DMSO concentration of 1% in the assay. On the day of the assay, cells in the plate are washed twice with 60 μL assay buffer (20 μL buffer remained in the wells after washing), followed by adding 5 μL per well of compounds diluted in assay buffer. After 15 minutes of incubation at room temperature 5 μL per well of Orexin A peptide (final concentration: 0.5 nM) dissolved in assay buffer is added to the assay plate. The assay plate is incubated for 60 minutes at 37° C. Then 5 μL per well of Anti-IP1-Cryptate Tb solution and 5 μL per well of IP1-d2 dilution are added to all well of the plate and the plate is incubated for a further 60 minutes light protected at room temperature. The emission at 615 nm and 665 nm (Excitation wavelength: 320 nm) are measured using an EnVision reader (PerkinElmer). The ratio between the emission at 665 nm and 615 is calculated by the reader.
8-point four parametric non-linear curve fitting and determination of IC50 values and Hill slopes is performed using a regular analysis software e.g. AssayExplorer (Accelrys). In order to establish an agonist concentration independent parameter, Kb values are calculated using the following equation: IC50/((2+(A/EC50)^n)^1/n−1) (with A=concentration agonist, EC50=EC50 agonist, n=Hill slope agonist) (see P. Leff, I. G. Dougall, Trends Pharmacol. Sci. 1993, 14(4), 110-112).
Kb values from Assay A (OX1R) and Assay B (OX2R) can then provide a selectivity ratio which is independent of the agonist (Orexin A) concentration.

human Orexin 1 receptor = biological target: T2, human Orexin 1 receptor (Homo sapiens, UniProt O43613); test: Assay A: in vitro testing of OX1R potency, OX1R IP1; format: cell-based; details: for Kb: Table 4a, 50 nM Orexin A
T2 construct: CHO-K1 cells stably expressing the full-length human Orexin 1 receptor and the aequorin photoprotein; expressed in transfected cells; host or cells: CHO-K1 (CHO-K1/hOx1)
T2 sequence (O43613 1-425): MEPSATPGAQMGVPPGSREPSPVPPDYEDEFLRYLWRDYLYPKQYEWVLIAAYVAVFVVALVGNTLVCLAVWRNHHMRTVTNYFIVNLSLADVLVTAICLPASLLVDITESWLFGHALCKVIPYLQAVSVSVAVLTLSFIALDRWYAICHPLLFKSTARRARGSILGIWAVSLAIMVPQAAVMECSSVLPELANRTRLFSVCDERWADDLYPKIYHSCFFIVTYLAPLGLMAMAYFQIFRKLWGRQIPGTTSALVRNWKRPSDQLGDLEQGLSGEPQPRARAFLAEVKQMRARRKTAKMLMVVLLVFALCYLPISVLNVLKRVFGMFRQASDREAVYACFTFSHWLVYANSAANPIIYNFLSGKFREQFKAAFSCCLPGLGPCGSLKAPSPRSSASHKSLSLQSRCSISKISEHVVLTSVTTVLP

[1] = Assay D: assessment of log P; format: physicochemical
Procedure: The assay was performed following the description by S. F. Donovan and M. C. Pescatore in J. Chromatogr. A 952 (2002) 47-61.

Row | SMILES | Kb (human orexin 2 receptor) [nM] | Kb (human Orexin 1 receptor) [nM] | chromatographic logP [1] | OX2R Kb/OX1R Kb (human Orexin 1 receptor)
1 | CC[C@@H](CNc1ccc(Cl)cn1)N(C)C(=O)c1cc(C)ccc1-n1nccn1 [Ex 1 in WO2016/ 034882, reference compound] | 43.2 | – | – | –
2 | CC[C@@H](CNc1ncc(C(F)(F)F)cn1)N(C)C(=O)c1cc(Cl)ccc1-n1nccn1 [Ex 39 in WO2016/ 034882, reference compound] | 81.5 | – | – | –
3 | CC[C@@H](CNc1ccc(C(F)(F)F)cn1)N(C)C(=O)c1cc(Cl)ccc1-n1nccn1 [Ex 42 in WO2016/ 034882, reference compound] | 36.2 | – | – | –
4 | CC[C@@H](CNc1ccc(C(F)(F)F)cn1)N(CC)C(=O)c1nc(C)ccc1-n1nccn1 [Ex 71 in WO2016/ 034882, reference compound] | 27.3 | 0.03 | – | –
5 | CC[C@@H](CNc1ncc(C(F)(F)F)cn1)N(CC)C(=O)c1nc(C)ccc1-n1nccn1 [Ex 73 in WO2016/ 034882, reference compound] | 148 | – | – | –
6 | CC[C@@H](CNc1ncc(C(F)(F)F)cn1)N(C)C(=O)c1nc(C)ccc1-c1ncccn1 [Ex 84 in WO2016/ 034882, reference compound] | – | 2.33 | – | –
7 | CC[C@@H](CNc1ncc(C(F)(F)F)cn1)N(C)C(=O)c1c(F)cccc1-n1nccn1 [Ex 91 in WO2016/ 034882, reference compound] | – | 3.96 | – | –
8 | CCN(C(=O)c1c(-n2nccn2)ccc(C)c1F)[C@@H](C)CNc1ncc(C(F)(F)F)cn1 [Example 1] | 21.8 | 0.041 | 2 to 4 | –
9 | CCN(C(=O)c1ccc(C)cc1-n1nccn1)[C@@H](C)CNc1ncc(C(F)(F)F)cn1 [Example 5] | 21.1 | 0.012 | 2 to 4 | –
10 | CCN(C(=O)c1cc(C)ccc1-n1nccn1)[C@@H](C)CN(C)c1ccc(Cl)cn1 [Example 9] | 4.79 | 0.0053 | – | 909
11 | CCN(C(=O)c1cc(C)ccc1-n1nccn1)[C@@H](C)CNc1ccc(Cl)cn1 [Example 10] | 5.57 | 0.014 | – | –
12 | CCN(C(=O)c1cccc(F)c1-c1ncccn1)[C@@H](C)CNc1ccc(C(F)(F)F)cn1 [Example 11] | 3.15 | 0.015 | 2 to 4 | –
13 | CCN(C(=O)c1cccc(F)c1-c1ncccn1)[C@@H](C)CNc1ccc(F)c(C(F)(F)F)n1 [Example 12] | 4.15 | 0.019 | 2 to 4 | –
14 | CCN(C(=O)c1cc(F)ccc1-c1ncccn1)[C@@H](C)CNc1ncc(C(F)(F)F)cc1F [Example 13] | 5.16 | 0.012 | 2 to 4 | –
15 | CCN(C(=O)c1cccc(F)c1-n1nccn1)[C@@H](C)CNc1ccc(Cl)cn1 [Example 17] | 11.4 | 0.043 | – | –
16 | CCN(C(=O)c1cccc(F)c1-n1nccn1)[C@@H](C)CNc1ccc(F)c(C(F)(F)F)n1 [Example 18] | 16.3 | 0.078 | 2 to 4 | –

Source: patent US10710984B2, “N-[(Pyrimidinylamino)propanyl]-and N-[(Pyridinylamino)-propanyl]arylcarboxamides” (Boehringer Ingelheim International GmbH, priority 2016, dated 2020)
